Data on seven molecules can be found in PMC5161622 (ACS synthetic biology, 2016).

The target in assay [1] is T1, β-gly W33G (Saccharolobus solfataricus, UniProt P22498, W33G). Briefly: 19F NMR competition assay with 6-fluoroindole reporter, β-gly W33G. Type of assay: binding, Sulfolobus solfataricus. Particulars: 2 mM 6-fluoroindole, 500 μM protein; for displacement of 6-fluoroindole reporter (19F peak sharpening): 5 mM competitor.
Assay [2] deals with T1, β-gly W33G. Briefly: β-glycosidase enzyme assay, rescue of β-gly W33G by effector ligands. Type of assay: biochemical, Sulfolobus solfataricus. Particulars: for rescue of enzyme activity (in words) / enhancement of initial velocity relative to apo enzyme: 2 mM effector; for rescue of enzyme activity (in words) / agonist class / concentration dependence of initial velocity / linkage term W (in words) / effector dissociation constant KD (in words): 750 μM FDGal; for agonist class: concentration dependence; for concentration dependence of initial velocity / linkage term W (in words) / effector dissociation constant KD (in words): up to 5 mM effector; for linkage term W (in words) / effector dissociation constant KD (in words): fit of concentration dependence.

The target in the next assay is T2, WT β-gly (Saccharolobus solfataricus, UniProt P22498).
T2 sequence (P22498 1-489): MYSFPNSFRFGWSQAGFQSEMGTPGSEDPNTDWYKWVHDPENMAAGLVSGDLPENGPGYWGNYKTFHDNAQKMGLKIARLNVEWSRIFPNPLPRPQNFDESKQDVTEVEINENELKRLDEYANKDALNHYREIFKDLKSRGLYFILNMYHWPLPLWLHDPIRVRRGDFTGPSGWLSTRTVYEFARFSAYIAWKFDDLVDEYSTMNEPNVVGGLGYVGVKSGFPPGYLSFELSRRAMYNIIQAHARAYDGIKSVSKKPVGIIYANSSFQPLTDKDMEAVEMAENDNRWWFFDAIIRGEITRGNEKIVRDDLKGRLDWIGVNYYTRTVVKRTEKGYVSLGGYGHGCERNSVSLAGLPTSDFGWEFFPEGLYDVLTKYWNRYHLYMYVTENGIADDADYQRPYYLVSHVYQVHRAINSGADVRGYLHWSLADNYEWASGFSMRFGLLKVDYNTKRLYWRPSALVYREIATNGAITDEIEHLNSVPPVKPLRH
As to the kind of experiment: 19F NMR reporter binding, wild type β-gly. Set-up: species or system Sulfolobus solfataricus. Particulars: 2 mM 6-fluoroindole, 500 μM WT protein.

Assay [3] addresses T1, β-gly W33G. Particulars: 10 mM indole, cited from earlier work.
The next assay concerns the target β-gly W33A (Saccharolobus solfataricus, UniProt P22498, W33A). As to the kind of experiment: β-glycosidase enzyme assay, rescue of β-gly W33A. Particulars: 750 μM FDGal. Type of assay: biochemical, Sulfolobus solfataricus.
A further assay has as its target β-gly W33G_V37A (Saccharolobus solfataricus, UniProt P22498, V37A/W33G). Briefly: β-glycosidase enzyme assay, rescue of β-gly W33G_V37A. Type of assay: biochemical, Sulfolobus solfataricus.
Setting [4] is: fit of concentration dependence.

Entries after “also recorded” stand apart in the source; their conditions may differ.

T1 sequence (P22498 whole entry W33G): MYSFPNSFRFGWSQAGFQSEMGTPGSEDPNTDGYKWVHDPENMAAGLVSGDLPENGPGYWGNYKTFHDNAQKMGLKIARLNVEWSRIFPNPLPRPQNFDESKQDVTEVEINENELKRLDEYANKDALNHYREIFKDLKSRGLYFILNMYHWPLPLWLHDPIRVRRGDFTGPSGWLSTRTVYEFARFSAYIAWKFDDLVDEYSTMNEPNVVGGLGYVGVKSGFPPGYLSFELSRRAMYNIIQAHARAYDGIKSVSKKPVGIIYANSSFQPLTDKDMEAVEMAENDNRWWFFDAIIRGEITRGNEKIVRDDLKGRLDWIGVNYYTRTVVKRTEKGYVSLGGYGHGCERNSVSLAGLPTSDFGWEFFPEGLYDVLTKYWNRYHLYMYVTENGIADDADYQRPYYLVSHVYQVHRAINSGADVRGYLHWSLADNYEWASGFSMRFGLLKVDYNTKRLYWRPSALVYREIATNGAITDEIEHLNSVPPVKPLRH
Sequence of β-gly W33A (P22498 whole entry W33A): as the sequence (P22498 whole entry W33G) above, with G33A counted along it
Sequence of β-gly W33G_V37A (P22498 whole entry W33G/V37A): as the sequence (P22498 whole entry W33G) above, with V37A counted along it

Regarding `Cc1cc2ccccc2[nH]1` [2-methylindole], on β-gly W33G [1], the “displacement of 6-fluoroindole reporter (19F peak sharpening)” value (shortened to “displacement of 6-fluoroindole reporter”) is given as “very little, if any, peak sharpening; also recorded: does not bind to this site”. Besides, the “rescue of enzyme activity (in words)” value at β-gly W33G [2] is on record as “no increase in activity over the apo enzyme”.
Consider `Fc1ccc2cc[nH]c2c1` [6-fluoroindole], for which the “19F signal of reporter upon addition of protein” value at β-gly W33G [1] (covalent substrate analog attached) is listed as “considerable peak broadening”; at WT β-gly it was “no change to this peak”. Moreover, at β-gly W33G [2], the “rescue of enzyme activity (in words)” value was “very similar level as indole itself”.
Consider `c1ccc2[nH]ccc2c1` [indole], for which the “restoration of kcat/Km relative to wild type” value on β-gly W33G [3] (W33G alone 730-fold decrease) is on record as “completely restored”. For the same molecule, the “restoration of wild type activity” value at β-gly W33G [3] is recorded as “fully restored wild type activity”. Further, the “displacement of 6-fluoroindole reporter” value at β-gly W33G [1] was “signal sharpens”. Besides, on β-gly W33G [2], the agonist class result was “full agonist”, the “concentration dependence of initial velocity” value (from here on “concentration dependence”) was “dose-dependent increases in the initial velocity”, the “rescue of enzyme activity (in words)” value is listed as “about twice the activity of 5-methylindole” and the “linkage term W (in words)” value is “highest linkage term (W)”. Further, at β-gly W33G [2] (FDGal substrate 250 μM), the “enhancement of initial velocity relative to apo enzyme” value was “better rescue with 2 mM indole than with 2 mM 3-methylindole”. The “ligand efficiency (binding free energy per non-hydrogen atom)” value at β-gly W33G [2] (binding to β-gly W33G) is listed as −0.31 kcal/mol·atom. On β-gly W33A (setting [4]), the “linkage term W (in words)” value was “lower for W33A than for W33G”.
With `Cc1ccc2[nH]ccc2c1` [5-methylindole], the “rescue of enzyme activity (in words)” value at β-gly W33G_V37A (2 mM effector, 750 μM FDGal) was “superior over indole”. Moreover, the “ligand efficiency (binding free energy per non-hydrogen atom)” value at β-gly W33G_V37A (5-methylindole / β-gly W33G_V37A switch) is on record as −0.43 kcal/mol·atom. At β-gly W33G_V37A (fit of concentration dependence, 750 μM FDGal), the “binding affinity KD (in words)” value was “almost an order of magnitude tighter than that of indole”.
For `Cc1c[nH]c2ccccc12` [3-methylindole], at β-gly W33G [1], the “displacement of 6-fluoroindole reporter” value is reported as “analogous peak sharpening”. On β-gly W33G [2], the agonist class entry is on record as “partial agonists”, the “concentration dependence” value is reported as “dose-dependent increases in the initial velocity”, the “rescue of enzyme activity (in words)” value was “most rescue; also recorded: the next best rescuing compound” and the “effector dissociation constant KD (in words)” value is on record as “slightly better than for indole; also recorded: superior KD”. In addition, on β-gly W33G [2], the “linkage term W (in words)” value is “worse than for indole”. In addition, on β-gly W33G [2] (FDGlc substrate 250 μM, indole versus 3-methylindole), the “enhancement of initial velocity relative to apo enzyme” value is reported as “difference in rescue between these substrates is greatly reduced”. Further, the “rescue of enzyme activity (in words)” value on β-gly W33A is recorded as “rescued activity better than indole”. On β-gly W33A (setting [4]), the “linkage term W (in words)” value is recorded as “lower for W33A than for W33G”.
Consider `CNc1ccccc1` [N-methylaniline], for which, at β-gly W33G [1], the “displacement of 6-fluoroindole reporter” value is “analogous peak sharpening”. Moreover, on β-gly W33G [2], the agonist class result is “partial agonists”, the “concentration dependence” value was “dose-dependent increases in the initial velocity”, the “rescue of enzyme activity (in words)” value was “intermediate rescue” and the “linkage term W (in words)” value is “superior W value”. The “rescue of enzyme activity (in words)” value at β-gly W33A is given as “better than either indole or 3-methylindole”. At β-gly W33A (setting [4]), the “binding affinity KD (in words)” value is “poor binding affinity” and the “linkage term W (in words)” value is “highest value of W”.
Turning to `Fc1ccc2[nH]ccc2c1` [5-fluoroindole], at β-gly W33G [2], the “concentration dependence” value was “enhanced β-glycosidase activity at each of the concentrations we tested”, the “effector dissociation constant KD (in words)” value is recorded as “KD favors 5-fluoroindole” and the “linkage term W (in words)” value is “W favors indole”.
